Data as given in ChEMBL document CHEMBL1201862, “PubChem BioAssay data set” (2004).
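Cultured in 96-well plates, cells were exposed to test compound for 48 hours across five concentrations. At the GI50, growth is halved.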 The source made the active and inactive calls. Rule as the data show it: active = GI50 up to about 1.1 µM and inactive = higher.

Assays:
Assay in all cases: inhibition of tumour cell growth, NCI panel, 48 h
SK-MEL-2 = tested on: SK-MEL-2
Malme-3M = tested on: Malme-3M
U-251 = tested on: U-251
RPMI-8226 = tested on: RPMI-8226
A549 = tested on: A549
NCI-H226 = tested on: NCI-H226
NCI-H23 = tested on: NCI-H23
SF-295 = tested on: SF-295
DLD-1 = tested on: DLD-1
ACHN = tested on: ACHN
OVCAR-8 = tested on: OVCAR-8
K562 = tested on: K562
OVCAR-5 = tested on: OVCAR-5
CAKI-1 = tested on: CAKI-1
MOLT-4 = tested on: MOLT-4
SN12C = tested on: SN12C
HOP-92 = tested on: HOP-92
SF-268 = tested on: SF-268
SF-539 = tested on: SF-539
NCI-H522 = tested on: NCI-H522
HOP-18 = tested on: HOP-18
UACC-62 = tested on: UACC-62
SW-620 = tested on: SW-620
DMS-273 = tested on: DMS-273
RXF 393 = tested on: RXF 393
EKVX = tested on: EKVX
M14 = tested on: M14
XF498 = tested on: XF498
SNB-19 = tested on: SNB-19
SNB-75 = tested on: SNB-75
SK-MEL-5 = tested on: SK-MEL-5
HCC 2998 = tested on: HCC 2998
TK-10 = tested on: TK-10
COLO 205 = tested on: COLO 205
KM-20L2 = tested on: KM-20L2
HL-60 = tested on: HL-60
LXFL 529 = tested on: LXFL 529
UACC-257 = tested on: UACC-257
A498 = tested on: A498
HT-29 = tested on: HT-29
LOX IMVI = tested on: LOX IMVI
HOP-62 = tested on: HOP-62
OVCAR-4 = tested on: OVCAR-4
CCRF-CEM = tested on: CCRF-CEM
HCT-15 = tested on: HCT-15
SK-MEL-28 = tested on: SK-MEL-28
M19-MEL = tested on: M19-MEL
SK-OV-3 = tested on: SK-OV-3
OVCAR-3 = tested on: OVCAR-3
HCT-116 = tested on: HCT-116
NCI-H460 = tested on: NCI-H460
UO-31 = tested on: UO-31
IGROV-1 = tested on: IGROV-1
786-0 = tested on: 786-0
KM12 = tested on: KM12

With CC(=O)OCC1OC(OC2CC3C(C)(C)C(OC(C)=O)CC[C@]3(C)C3CCC45CC4(CC[C@H]5C(C)CC(O)[C@@H](O)C(C)(C)O)[C@]23C)C(O)C(O)C1O (stereo not given in full) as the compound, how does the GI50 (SK-MEL-2) read?
The GI50 was 9.38 µM (inactive).

And the GI50 (Malme-3M)?
Its GI50 is 7.69 µM (inactive).

And the GI50 (U-251)?
Its GI50 is 6.28 µM (inactive).

And the GI50 (RPMI-8226)?
Its GI50 is 0.173 µM (active).

And the GI50 (A549)?
The GI50 was 8.02 µM (inactive).

What about the GI50 (NCI-H226) of the same compound?
The GI50 was 7.18 µM (inactive).

And the GI50 (NCI-H23)?
Its GI50 is 8.53 µM (inactive).

And the GI50 (SF-295)?
The GI50 was 7.93 µM (inactive).

What about the GI50 (DLD-1) of the same compound?
The GI50 was 7.41 µM (inactive).

And the GI50 (ACHN)?
Its GI50 is 7.98 µM (inactive).

And the GI50 (OVCAR-8)?
Its GI50 is 7.45 µM (inactive).

And the GI50 (K562)?
Its GI50 is 5.55 µM (inactive).

What about the GI50 (OVCAR-5) of the same compound?
The GI50 was 7.66 µM (inactive).

And the GI50 (CAKI-1)?
The GI50 was 7.21 µM (inactive).

And the GI50 (MOLT-4)?
Its GI50 is 2.36 µM (inactive).

And the GI50 (SN12C)?
The GI50 was 7.05 µM (inactive).

And the GI50 (HOP-92)?
The GI50 was 7.01 µM (inactive).

And the GI50 (SF-268)?
Its GI50 is 8.11 µM (inactive).

And the GI50 (SF-539)?
Its GI50 is 7.31 µM (inactive).

And the GI50 (NCI-H522)?
Its GI50 is 1.82 µM (inactive).

And the GI50 (HOP-18)?
Its GI50 is 8.61 µM (inactive).

What about the GI50 (UACC-62) of the same compound?
Its GI50 is 6.25 µM (inactive).

And the GI50 (SW-620)?
Its GI50 is 7.69 µM (inactive).

What about the GI50 (DMS-273) of the same compound?
The GI50 was 7.62 µM (inactive).

What about the GI50 (RXF 393) of the same compound?
Its GI50 is 7.57 µM (inactive).

What about the GI50 (EKVX) of the same compound?
The GI50 was 7 µM (inactive).

What about the GI50 (M14) of the same compound?
The GI50 was 6.95 µM (inactive).

And the GI50 (XF498)?
Its GI50 is 19.8 µM (inactive).

And the GI50 (SNB-19)?
Its GI50 is 7.08 µM (inactive).

What about the GI50 (SNB-75) of the same compound?
Its GI50 is 6.18 µM (inactive).

What about the GI50 (SK-MEL-5) of the same compound?
The GI50 was 7.13 µM (inactive).

And the GI50 (HCC 2998)?
The GI50 was 6.84 µM (inactive).

And the GI50 (TK-10)?
The GI50 was 7.76 µM (inactive).

And the GI50 (COLO 205)?
The GI50 was 7.8 µM (inactive).

What about the GI50 (KM-20L2) of the same compound?
The GI50 was 8.05 µM (inactive).

What about the GI50 (HL-60) of the same compound?
The GI50 was 3.5 µM (inactive).

What about the GI50 (LXFL 529) of the same compound?
Its GI50 is 5.65 µM (inactive).

What about the GI50 (UACC-257) of the same compound?
The GI50 was 7.53 µM (inactive).

And the GI50 (A498)?
The GI50 was 7 µM (inactive).

And the GI50 (HT-29)?
Its GI50 is 8.05 µM (inactive).

And the GI50 (LOX IMVI)?
Its GI50 is 6.95 µM (inactive).

And the GI50 (HOP-62)?
The GI50 was 5.86 µM (inactive).

What about the GI50 (OVCAR-4) of the same compound?
Its GI50 is 6.67 µM (inactive).

And the GI50 (CCRF-CEM)?
Its GI50 is 6.46 µM (inactive).

What about the GI50 (HCT-15) of the same compound?
Its GI50 is 7.64 µM.

What about the GI50 (SK-MEL-28) of the same compound?
The GI50 was 7.4 µM (inactive).

What about the GI50 (M19-MEL) of the same compound?
The GI50 was 7.55 µM (inactive).

What about the GI50 (SK-OV-3) of the same compound?
Its GI50 is 5.83 µM (inactive).

What about the GI50 (OVCAR-3) of the same compound?
Its GI50 is 7.19 µM (inactive).

What about the GI50 (HCT-116) of the same compound?
Its GI50 is 7.64 µM (inactive).

And the GI50 (NCI-H460)?
Its GI50 is 8.95 µM (inactive).

And the GI50 (UO-31)?
Its GI50 is 6.38 µM (inactive).

What about the GI50 (IGROV-1) of the same compound?
The GI50 was 7.36 µM (inactive).

And the GI50 (786-0)?
Its GI50 is 7.82 µM (inactive).

And the GI50 (KM12)?
The GI50 was 7.85 µM (inactive).
